Calls of active or inactive are those of the source.
Tests used:
Type in all cases: functional, organism-based
Conditions in all cases: Lung
Mus musculus [1] = test: Antiinflammatory activity against ovalbumin-induced airway allergic C57BL/6 mouse model assessed as reduction of recruitment of eosinophils in bronchoalveolar lavage fluid at 20 ug/mL administered intranasally after 28 days ovalbumin challenge measured on day 32
Mus musculus [2] = test: Antiinflammatory activity against ovalbumin-induced airway allergic C57BL/6 mouse model assessed as decrease of macrophages in bronchoalveolar lavage fluid at 20 ug/mL administered intranasally after 28 days ovalbumin challenge measured on day 32
Mus musculus [3] = test: Antiinflammatory activity against ovalbumin-induced airway allergic C57BL/6 mouse model assessed as decrease of lymphocytes in bronchoalveolar lavage fluid at 20 ug/mL administered intranasally after 28 days ovalbumin challenge measured on day 32

Measured: Activity

CCCCCCCCCCCCCCCCCC(=O)OC[C@H](COP(=O)(O)OC(CO[C@H]1O[C@H](CO)[C@@H](O)[C@H](O)[C@@H]1O)CO[C@H]1O[C@H](CO)[C@@H](O)[C@H](O)[C@@H]1O)OC(=O)CCCCCCCCCCCCCCCCC
active: all assays above

Source: ChEMBL document CHEMBL1641509, “A PIM₂ analogue suppresses allergic airway disease” (Bioorg Med Chem, 2011)
